Values after ≈ are worked out from the molar mass of the structure shown.
Key:
[1] = Cytotoxicity against human A549 cells assessed as growth inhibition at 30 ug/ml after 48 hrs by MTT assay relative to control; format: cell-based; conditions: read-out: GI
[2] = Cytotoxicity against human A549 cells assessed as growth inhibition at 3 ug/ml after 48 hrs by MTT assay relative to control; format: cell-based; conditions: read-out: GI
[3] = tested on: Mycobacterium tuberculosis; experiment: Antimycobacterial activity against dormant state of Mycobacterium tuberculosis H37Ra assessed as growth inhibition at 3 ug/ml after 12 days by XTT reduction menadione assay relative to control; format: functional; conditions: 288 h, read-out: GI
MCF7 = experiment: (§1) Cytotoxicity against human MCF7 cells assessed as growth inhibition after 48 hrs by MTT assay; format: cell-based; conditions: mcf7, 48 h
[4] = as §1; format: cell-based; conditions: MCF7 cells
Pseudomonas fluorescens = experiment: Antibacterial activity against Pseudomonas fluorescens ATCC 13525 after 8 hrs; format: functional; conditions: ATCC 13525, 8 h
[5] = tested on: Mycobacterium tuberculosis; experiment: Antimycobacterial activity against dormant state of Mycobacterium tuberculosis H37Ra assessed as growth inhibition at 10 ug/ml after 12 days by XTT reduction menadione assay relative to control; format: functional; conditions: 288 h, read-out: GI
[6] = tested on: Mycobacterium tuberculosis; experiment: Antimycobacterial activity against dormant state of Mycobacterium tuberculosis H37Ra assessed as growth inhibition at 30 ug/ml after 12 days by XTT reduction menadione assay relative to control; format: functional; conditions: 288 h, read-out: GI
[7] = tested on: Mycobacterium tuberculosis; experiment: Antimycobacterial activity against dormant state of Mycobacterium tuberculosis H37Ra by two fold dilution method; format: functional
[8] = Cytotoxicity against human HCT116 cells assessed as growth inhibition at 30 ug/ml after 48 hrs by MTT assay relative to control; format: cell-based, HCT-116; conditions: read-out: GI
[9] = Cytotoxicity against human MCF7 cells assessed as growth inhibition at 3 ug/ml after 48 hrs by MTT assay relative to control; format: cell-based; conditions: read-out: GI
[10] = Cytotoxicity against human HCT116 cells assessed as growth inhibition at 10 ug/ml after 48 hrs by MTT assay relative to control; format: cell-based, HCT-116; conditions: read-out: GI
Escherichia coli = experiment: Antibacterial activity against Escherichia coli ATCC […] after 8 hrs; format: functional
Bacillus subtilis = experiment: Antibacterial activity against Bacillus subtilis ATCC 23857 after 12 hrs; format: functional; conditions: ATCC 23857, 12 h
[11] = Cytotoxicity against human A549 cells assessed as growth inhibition at 10 ug/ml after 48 hrs by MTT assay relative to control; format: cell-based; conditions: read-out: GI
A549 = experiment: (§2) Cytotoxicity against human A549 cells assessed as growth inhibition after 48 hrs by MTT assay; format: cell-based; conditions: a549, 48 h
[12] = as §2; format: cell-based; conditions: A549 cells
[13] = Cytotoxicity against human MCF7 cells assessed as growth inhibition at 10 ug/ml after 48 hrs by MTT assay relative to control; format: cell-based; conditions: read-out: GI
[14] = Cytotoxicity against human MCF7 cells assessed as growth inhibition at 30 ug/ml after 48 hrs by MTT assay relative to control; format: cell-based; conditions: read-out: GI
[15] = Cytotoxicity against human HCT116 cells assessed as growth inhibition at 3 ug/ml after 48 hrs by MTT assay relative to control; format: cell-based, HCT-116; conditions: read-out: GI
Staphylococcus aureus = experiment: Antibacterial activity against Staphylococcus aureus ATCC 29213 after 12 hrs; format: functional; conditions: ATCC 29213, 12 h
HCT-116 = experiment: (§3) Cytotoxicity against human HCT116 cells assessed as growth inhibition after 48 hrs by MTT assay; format: cell-based; conditions: hct-116, 48 h
[16] = as §3; format: cell-based, HCT-116; conditions: HCT116 cells

| Compound | inhibition at 48 h, 30 ug/ml [1] | inhibition at 48 h, 3 ug/ml [2] | inhibition of growth at 3 µg/mL [3] | inhibition of growth at 10 µg/mL [5] | inhibition of growth at 30 µg/mL [6] | MIC50 [7] | MIC90 [7] | inhibition at 48 h, 30 ug/ml [8] | inhibition at 48 h, 3 ug/ml [9] | inhibition at 48 h, 10 ug/ml [10] | inhibition at 48 h, 10 ug/ml [11] | inhibition at 48 h, 10 ug/ml [13] | inhibition at 48 h, 30 ug/ml [14] | inhibition at 48 h, 3 ug/ml [15] | further results |
| --- | --- | --- | --- | --- | --- | --- | --- | --- | --- | --- | --- | --- | --- | --- | --- |
| Cc1ccc2cc(/C=C3\CNC/C(=C\c4cc5ccc(C)cc5nc4Cl)C3=O)c(Cl)nc2c1 | 0% | 5.4% | 5.8% | 61.2% | 98.3% | 8.7 µg/mL (≈ 18.3 µM) | 25.5 µg/mL (≈ 53.8 µM) | 33.8% | -3.4% | 30.9% | -16.9% | 10.1% | 15.7% | 29.7% | GI90 (MCF7): > 100 µg/mL; GI50 at 48 h [4]: > 100 µg/mL; MIC50 (Pseudomonas fluorescens): > 30 µg/mL; MIC90 (Pseudomonas fluorescens): > 30 µg/mL; MIC50 (Escherichia coli): > 30 µg/mL; MIC90 (Escherichia coli): > 30 µg/mL; MIC50 (Bacillus subtilis): > 30 µg/mL; MIC90 (Bacillus subtilis): > 30 µg/mL; GI90 (A549): > 100 µg/mL; GI50 at 48 h [12]: > 100 µg/mL; MIC50 (Staphylococcus aureus): > 30 µg/mL; MIC90 (Staphylococcus aureus): > 30 µg/mL; GI90 (HCT-116): > 100 µg/mL; GI50 at 48 h [16]: > 100 µg/mL |
| CN1C/C(=C\c2cc3cc(F)ccc3nc2Cl)C(=O)/C(=C/c2cc3cc(F)ccc3nc2Cl)C1 | 0% | 0% | 39.7% | 14.7% | 34.1% | > 30 µg/mL | > 30 µg/mL | 12.7% | 7.8% | 10.3% | 0% | -0.6% | 32.3% | -0.4% | – |
| Cc1cccc2cc(/C=C3\CNC/C(=C\c4cc5cccc(C)c5nc4Cl)C3=O)c(Cl)nc12 | -13.9% | 0% | 4.6% | 32.7% | 12.6% | > 30 µg/mL | > 30 µg/mL | 13.7% | 0% | 10.4% | 0% | 0% | 0% | 3.2% | – |
| CC(=O)O[C@H]1C(=O)[C@@]2(C)[C@H]([C@H](OC(=O)c3ccccc3)[C@]3(O)C[C@H](OC(=O)[C@H](O)[C@@H](NC(=O)c4ccccc4)c4ccccc4)C(C)=C1C3(C)C)[C@]1(OC(C)=O)CO[C@@H]1C[C@@H]2O [PACLITAXEL] | – | – | – | – | – | – | – | – | – | – | – | – | – | – | GI90 (MCF7): 0.075 µg/mL (≈ 0.0878 µM); GI90 (A549): 0.0706 µg/mL (≈ 0.0827 µM); GI90 (HCT-116): 5.715 µg/mL (≈ 6.69 µM); GI50 at 48 h [16]: 0.128 µg/mL (≈ 0.15 µM) |
| Cc1ccc2nc(Cl)c(/C=C3\CNC/C(=C\c4cc5cc(C)ccc5nc4Cl)C3=O)cc2c1 | 0% | -18.7% | 9.9% | 28.5% | 34.4% | > 30 µg/mL | > 30 µg/mL | 21.8% | 0.9% | 16.3% | 0% | 17.7% | 14.2% | 5.5% | – |
| NC[C@H]1O[C@H](O[C@H]2[C@H](O)[C@@H](O[C@H]3O[C@H](CO)[C@@H](O)[C@H](N)[C@H]3O)[C@H](N)C[C@@H]2N)[C@H](O)[C@@H](O)[C@@H]1O [KANAMYCIN] | – | – | – | – | – | – | – | – | – | – | – | – | – | – | MIC50 (Staphylococcus aureus): > 30 µg/mL; MIC90 (Staphylococcus aureus): 16 µg/mL (≈ 33 µM) |
| COc1ccc2nc(Cl)c(/C=C3\CN(C)C/C(=C\c4cc5cc(OC)ccc5nc4Cl)C3=O)cc2c1 | 0% | 0% | 52% | -5.8% | -0.8% | > 30 µg/mL | > 30 µg/mL | 10.2% | -7.1% | 12.2% | 0% | -7.4% | 39% | -2.1% | – |
